These results are taken from ChEMBL document CHEMBL1201861, “Genomics of Drug Sensitity in Cancer screening data, Wellcome Trust Sanger Institute”.

One assay has as its system SR. Briefly: cells. To be noted: Homo sapiens. Format: functional, cell-based.
In another assay the test system is ECC4. Briefly: cells. Format: functional, cell-based. To be noted: Homo sapiens.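 Note: growth inhibition of ECC4 cells, read out with a cell viability assay.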
A further assay deals with NCCIT. Briefly: SANGER: Inhibition of human NCCIT cell growth in a cell viability assay. Format: functional, cell-based.
The next assay has as its system NCI-H1417. Briefly: cells. The format is functional, cell-based. To be noted: Homo sapiens.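 Note: human NCI-H1417 cells, growth inhibition determined with a cell viability readout.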
A further assay deals with BL-41. Briefly: cells. Format: functional, cell-based. To be noted: Homo sapiens.
The next assay has as its system KMS-12-PE. Briefly: cells. The note with it: Homo sapiens. Format: functional, cell-based.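 Note: growth inhibition of human KMS-12-PE cells, measured with a cell viability assay.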
Another assay has as its system NCI-H2171. Briefly: cells. The format is functional, cell-based. The note with it: Homo sapiens.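 Note: growth inhibition of human NCI-H2171 cells, read out by a cell viability assay.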
The subject of a further assay is BC-3. Briefly: cells. Format: functional, cell-based. The note with it: Homo sapiens.
The next assay deals with SCLC-21H. Briefly: cells. The note with it: Homo sapiens. The format is functional, cell-based.
Another assay concerns CA46. Briefly: cells. Format: functional, cell-based. To be noted: Homo sapiens.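 Note: growth inhibition of human CA46 cells, read out by a cell viability assay.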
The test system of the next assay is PF-382. Briefly: cells. The format is functional, cell-based. To be noted: Homo sapiens.
A further assay has as its system CESS. Briefly: SANGER: Inhibition of human CESS cell growth in a cell viability assay. The format is functional, cell-based.
The subject of a further assay is OPM-2. Briefly: cells. The format is functional, cell-based. The note with it: Homo sapiens.
The subject of another assay is EVSA-T. Briefly: cells. The format is functional, cell-based. To be noted: Homo sapiens.
The subject of the next assay is TALL-1. Briefly: cells. Format: functional, cell-based. To be noted: Homo sapiens.
The test system of a further assay is HCC1599. Briefly: cells. The format is functional, cell-based. To be noted: Homo sapiens.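 Note: growth inhibition of HCC1599 cells, read out in a cell viability assay.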
Another assay concerns SIG-M5. Briefly: cells. Format: functional, cell-based. To be noted: Homo sapiens.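 Note: cell viability assay read-out, measuring how strongly growth of cultured human SIG-M5 cells is inhibited.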
A further assay has as its system D-392MG. Briefly: cells. The format is functional, cell-based. To be noted: Homo sapiens.
The subject of another assay is NCI-H2405. Briefly: cells. Format: functional, cell-based. To be noted: Homo sapiens.
The test system of a further assay is NCI-H2170. Briefly: cells. The format is functional, cell-based. The note with it: Homo sapiens.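 Note: cell viability assay measuring growth inhibition of human NCI-H2170 cancer cells.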
The subject of another assay is NY. Briefly: cells. The format is functional, cell-based. To be noted: Homo sapiens.
For the next assay, the system named is AN3-CA. Briefly: cells. The format is functional, cell-based. The note with it: Homo sapiens.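 Note: growth inhibition of human AN3-CA cells measured by a cell viability assay.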
For another assay, the system named is AU565. Briefly: cells. Format: functional, cell-based. To be noted: Homo sapiens.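 Note: cell viability assay measuring growth inhibition of human AU565 cells.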
The test system of a further assay is KYSE-270. Briefly: cells. The format is functional, cell-based. The note with it: Homo sapiens.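 Note: cell growth inhibition measured with a viability assay in the human KYSE-270 line.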
For another assay, the system named is OVCAR-8. Briefly: cells. The format is functional, cell-based. The note with it: Homo sapiens.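 Note: growth inhibition of human OVCAR-8 cells, read out by a cell viability assay.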
Another assay has as its system HLE. Briefly: cells. Format: functional, cell-based. The note with it: Homo sapiens.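 Note: growth inhibition of human HLE cells, read out by a cell viability assay.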
The subject of the next assay is KYSE-180. Briefly: cells. The format is functional, cell-based. To be noted: Homo sapiens.
The test system of another assay is COR-L23. Briefly: cells. Format: functional, cell-based. The note with it: Homo sapiens.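 Note: cell viability assay measuring how strongly compounds suppress growth of COR-L23 cells.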
The next assay has as its system C32. Briefly: cells. The format is functional, cell-based. The note with it: Homo sapiens.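 Note: cell viability assay, with IC50 reflecting inhibition of C32 cell growth.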
For another assay, the system named is CAKI-1. Briefly: cells. Format: functional, cell-based. To be noted: Homo sapiens.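 Note: growth inhibition of CAKI-1 cells, measured by a cell viability assay.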
For the next assay, the system named is HCC1395. Briefly: cells. Format: functional, cell-based. To be noted: Homo sapiens.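 Note: growth inhibition of HCC1395 cells, read out by a cell viability assay.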
A further assay concerns GMS-10. Briefly: cells. The note with it: Homo sapiens. Format: functional, cell-based.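 Note: growth inhibition of GMS-10 cells, read out as cell viability.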
The subject of the next assay is NCI-H1793. Briefly: cells. Format: functional, cell-based. To be noted: Homo sapiens.
The next assay has as its system KYSE-140. Briefly: cells. Format: functional, cell-based. To be noted: Homo sapiens.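 Note: cell viability assay measuring growth inhibition in human KYSE-140 cells.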
The test system of the next assay is U-118-MG. Briefly: cells. Format: functional, cell-based. The note with it: Homo sapiens.
The next assay deals with NUGC-3. Briefly: cells. The format is functional, cell-based. The note with it: Homo sapiens.
In a further assay the test system is HSC-4. Briefly: cells. To be noted: Homo sapiens. Format: functional, cell-based.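 Note: growth inhibition of human HSC-4 cells, read out with a cell viability assay.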
In a further assay the test system is T84. Briefly: cells. The format is functional, cell-based. The note with it: Homo sapiens.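 Note: growth inhibition measured with a cell viability readout.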
Another assay deals with BHY. Briefly: cells. Format: functional, cell-based. To be noted: Homo sapiens.
In the next assay the test system is HEC-1. Briefly: cells. The format is functional, cell-based. To be noted: Homo sapiens.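 Note: growth inhibition of the cell line, read out with a cell viability assay.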
In another assay the test system is SKG-IIIa. Briefly: cells. Format: functional, cell-based. The note with it: Homo sapiens.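 Note: cell growth inhibition, read out with a cell viability assay.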
A further assay has as its system HT-3. Briefly: cells. Format: functional, cell-based. The note with it: Homo sapiens.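 Note: growth inhibition measured with a cell viability readout.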
The test system of the next assay is HSC-2. Briefly: cells. To be noted: Homo sapiens. Format: functional, cell-based.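 Note: growth inhibition of human HSC-2 cells, read out by a cell viability assay.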
A further assay has as its system CAL-27. Briefly: cells. The note with it: Homo sapiens. Format: functional, cell-based.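 Note: Viability-based readout, IC50 reflecting inhibition of CAL-27 cell growth.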
The subject of another assay is MEL-HO. Briefly: cells. The format is functional, cell-based. To be noted: Homo sapiens.
Another assay deals with MDA-MB-361. Briefly: cells. Format: functional, cell-based. To be noted: Homo sapiens.
Another assay deals with YKG-1. Briefly: cells. Format: functional, cell-based. To be noted: Homo sapiens.
The test system of another assay is HOP-92. Briefly: cells. Format: functional, cell-based. To be noted: Homo sapiens.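 Note: cell viability readout, with IC50 reflecting inhibition of HOP-92 cell growth.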
In the next assay the test system is MFE-280. Briefly: cells. The format is functional, cell-based. The note with it: Homo sapiens.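 Note: growth inhibition of MFE-280 cells, determined with a cell viability readout.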
The next assay deals with KOSC-2. Briefly: cells. Format: functional, cell-based. To be noted: Homo sapiens.
Another assay relates to HuCCT-1. Briefly: cells. Format: functional, cell-based, HuCCT1. To be noted: Homo sapiens.
Another assay concerns NCI-N87. Briefly: cells. The note with it: Homo sapiens. Format: functional, cell-based.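 Note: growth inhibition of human NCI-N87 cells, read out with a cell viability assay.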
The subject of the next assay is A-375. Briefly: cells. The note with it: Homo sapiens. The format is functional, cell-based.
A further assay relates to MEL-JUSO. Briefly: cells. The format is functional, cell-based. To be noted: Homo sapiens.
The subject of a further assay is U2OS. Briefly: cells. Format: functional, cell-based, U-2-OS. To be noted: Homo sapiens.
Another assay concerns GCT. Briefly: cells. The format is functional, cell-based. To be noted: Homo sapiens.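 Note: GCT cell line proliferation inhibition, read out with a cell viability assay.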
A further assay concerns SK-MEL-28. Briefly: cells. The note with it: Homo sapiens. Format: functional, cell-based.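 Note: growth inhibition of human SK-MEL-28 cells, read out with a cell viability assay.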
A further assay concerns LoVo. Briefly: cells. To be noted: Homo sapiens. The format is functional, cell-based.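 Note: growth inhibition of human LoVo cells, read out with a cell viability assay.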
In another assay the test system is SK-MES-1. Briefly: cells. Format: functional, cell-based. To be noted: Homo sapiens.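 Note: growth inhibition of human SK-MES-1 cells, read out with a cell viability assay.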

Description for A-375: SANGER: Inhibition of human A375 cell growth in a cell viability assay.
Description for AN3-CA: SANGER: Inhibition of human AN3-CA cell growth in a cell viability assay.
Description for AU565: SANGER: Inhibition of human AU565 cell growth in a cell viability assay.
Description for BC-3: SANGER: Inhibition of human BC-3 cell growth in a cell viability assay.
Description for BHY: SANGER: Inhibition of human BHY cell growth in a cell viability assay.
Description for BL-41: SANGER: Inhibition of human BL-41 cell growth in a cell viability assay.
Description for C32: SANGER: Inhibition of human C32 cell growth in a cell viability assay.
Description for CA46: SANGER: Inhibition of human CA46 cell growth in a cell viability assay.
Description for CAKI-1: SANGER: Inhibition of human CAKI-1 cell growth in a cell viability assay.
Description for CAL-27: SANGER: Inhibition of human CAL-27 cell growth in a cell viability assay.
Description for COR-L23: SANGER: Inhibition of human COR-L23 cell growth in a cell viability assay.
Description for ECC4: SANGER: Inhibition of human ECC4 cell growth in a cell viability assay.
Description for EVSA-T: SANGER: Inhibition of human EVSA-T cell growth in a cell viability assay.
Description for GCT: SANGER: Inhibition of human GCT cell growth in a cell viability assay.
Description for GMS-10: SANGER: Inhibition of human GMS-10 cell growth in a cell viability assay.
Description for HCC1395: SANGER: Inhibition of human HCC1395 cell growth in a cell viability assay.
Description for HCC1599: SANGER: Inhibition of human HCC1599 cell growth in a cell viability assay.
Description for HEC-1: SANGER: Inhibition of human HEC-1 cell growth in a cell viability assay.
Description for HLE: SANGER: Inhibition of human HLE cell growth in a cell viability assay.
Description for HOP-92: SANGER: Inhibition of human HOP-92 cell growth in a cell viability assay.
Description for HSC-2: SANGER: Inhibition of human HSC-2 cell growth in a cell viability assay.
Description for HSC-4: SANGER: Inhibition of human HSC-4 cell growth in a cell viability assay.
Description for HT-3: SANGER: Inhibition of human HT-3 cell growth in a cell viability assay.
Description for HuCCT-1: SANGER: Inhibition of human HuCCT1 cell growth in a cell viability assay.
Description for KMS-12-PE: SANGER: Inhibition of human KMS-12-PE cell growth in a cell viability assay.
Description for KOSC-2: SANGER: Inhibition of human KOSC-2 cell growth in a cell viability assay.
Description for KYSE-140: SANGER: Inhibition of human KYSE-140 cell growth in a cell viability assay.
Description for KYSE-180: SANGER: Inhibition of human KYSE-180 cell growth in a cell viability assay.
Description for KYSE-270: SANGER: Inhibition of human KYSE-270 cell growth in a cell viability assay.
Description for LoVo: SANGER: Inhibition of human LoVo cell growth in a cell viability assay.
Description for MEL-HO: SANGER: Inhibition of human MEL-HO cell growth in a cell viability assay.
Description for MEL-JUSO: SANGER: Inhibition of human MEL-JUSO cell growth in a cell viability assay.
Description for MFE-280: SANGER: Inhibition of human MFE-280 cell growth in a cell viability assay.
Description for NCI-H1417: SANGER: Inhibition of human NCI-H1417 cell growth in a cell viability assay.
Description for NCI-H1793: SANGER: Inhibition of human NCI-H1793 cell growth in a cell viability assay.
Description for NCI-H2170: SANGER: Inhibition of human NCI-H2170 cell growth in a cell viability assay.
Description for NCI-H2171: SANGER: Inhibition of human NCI-H2171 cell growth in a cell viability assay.
Description for NCI-H2405: SANGER: Inhibition of human NCI-H2405 cell growth in a cell viability assay.
Description for NCI-N87: SANGER: Inhibition of human NCI-N87 cell growth in a cell viability assay.
Description for NUGC-3: SANGER: Inhibition of human NUGC-3 cell growth in a cell viability assay.
Description for NY: SANGER: Inhibition of human NY cell growth in a cell viability assay.
Description for OPM-2: SANGER: Inhibition of human OPM-2 cell growth in a cell viability assay.
Description for OVCAR-8: SANGER: Inhibition of human OVCAR-8 cell growth in a cell viability assay.
Description for PF-382: SANGER: Inhibition of human PF-382 cell growth in a cell viability assay.
Description for SCLC-21H: SANGER: Inhibition of human SCLC-21H cell growth in a cell viability assay.
Description for SIG-M5: SANGER: Inhibition of human SIG-M5 cell growth in a cell viability assay.
Description for SK-MEL-28: SANGER: Inhibition of human SK-MEL-28 cell growth in a cell viability assay.
Description for SK-MES-1: SANGER: Inhibition of human SK-MES-1 cell growth in a cell viability assay.
Description for SKG-IIIa: SANGER: Inhibition of human SKG-IIIa cell growth in a cell viability assay.
Description for SR: SANGER: Inhibition of human SR cell growth in a cell viability assay.
Description for T84: SANGER: Inhibition of human T84 cell growth in a cell viability assay.
Description for TALL-1: SANGER: Inhibition of human TALL-1 cell growth in a cell viability assay.
Description for U-118-MG: SANGER: Inhibition of human U-118-MG cell growth in a cell viability assay.
Description for U2OS: SANGER: Inhibition of human U-2-OS cell growth in a cell viability assay.
Description for YKG-1: SANGER: Inhibition of human YKG-1 cell growth in a cell viability assay.

In general, IC50 refers to the concentration that inhibits the measured activity by half. Low readings indicate inhibition by little substance, high ones a need for much substance. Regarding `CCNc1cc(N[C@H]2CC[C@@H](O)CC2)nc(Nc2ccc3c(ccn3Cc3ccccc3)c2)n1`, the IC50 with SR, in the assay with ECC4, with NCCIT, with NCI-H1417, in the assay with BL-41 and with KMS-12-PE was greater than 5120 nM each time. Besides, the IC50 with NCI-H2171, with BC-3, in the assay on SCLC-21H, with CA46, in the assay with PF-382 and in the assay with CESS was greater than 5120 nM in each case. Further, the IC50 with OPM-2, in the assay with EVSA-T, with TALL-1, in the assay with HCC1599 and with SIG-M5 was greater than 5120 nM each time.
With `COc1cc(C)c(Sc2cnc(NC(=O)c3ccc(CNC(C)C(C)(C)C)cc3)s2)cc1C(=O)N1CCN(C(C)=O)CC1` (stereo not given), the IC50 with SR, with ECC4, with NCCIT, with NCI-H1417, in the assay on BL-41 and with KMS-12-PE was greater than 10200 nM throughout. The IC50 in the assay on NCI-H2171, in the assay with BC-3, in the assay on SCLC-21H, with CA46, in the assay with PF-382 and in the assay on CESS was greater than 10200 nM in each case. In addition, the IC50 is 8910 nM in the assay with OPM-2; greater than 10200 nM with EVSA-T; greater than 10200 nM in the assay with TALL-1; greater than 10200 nM in the assay with HCC1599; 8070 nM in the assay with SIG-M5.
Consider `Cc1ccc(NC(=O)c2cccc(C(C)(C)C#N)c2)cc1Nc1ccc2ncn(C)c(=O)c2c1`, for which the IC50 with SR, in the assay on ECC4, with NCCIT, in the assay with NCI-H1417, with BL-41 and in the assay with KMS-12-PE was greater than 4000 nM each time. Moreover, the IC50 in the assay with NCI-H2171 is greater than 4000 nM; with BC-3 it was greater than 4000 nM; in the assay on SCLC-21H, greater than 4000 nM; in the assay with CA46, greater than 4000 nM; in the assay with PF-382, 3050 nM; in the assay with CESS, greater than 4000 nM. Also, the IC50 in the assay on OPM-2 is 3030 nM; in the assay on EVSA-T, greater than 4000 nM; with TALL-1 it was greater than 4000 nM; in the assay on HCC1599, greater than 4000 nM; with SIG-M5, 9.45 nM; in the assay on D-392MG, 356 nM.
With `Cc1n[nH]c2ccc(-c3cncc(OC[C@@H](N)Cc4c[nH]c5ccccc45)c3)cc12` [A-443654], the IC50 with SR is 184 nM; in the assay with ECC4, greater than 1020 nM; with NCCIT, 234 nM; in the assay with NCI-H1417 it was 584 nM; in the assay with BL-41, 96.3 nM; in the assay with KMS-12-PE, greater than 1020 nM. Further, the IC50 in the assay on NCI-H2171 is greater than 1020 nM; in the assay with BC-3, 342 nM; with SCLC-21H, greater than 1020 nM; in the assay with CA46, greater than 1020 nM; with PF-382 it was 638 nM; in the assay on CESS, 191 nM. Moreover, the IC50 in the assay with OPM-2 was determined as 314 nM; in the assay with EVSA-T, 220 nM; in the assay with TALL-1, 242 nM; with HCC1599, 162 nM; in the assay with SIG-M5, 130 nM.
For the compound `CC[C@@]1(O)C(=O)OCc2c1cc1n(c2=O)Cc2cc3ccccc3nc2-1` [CAMPTOTHECIN], the IC50 was 58.5 nM in the assay with NCI-H2405; 13.7 nM with NCI-H2170; greater than 100 nM with NY; 34 nM in the assay with AN3-CA; 3.68 nM with AU565; 5.22 nM with KYSE-270. The IC50 in the assay with OVCAR-8 was 7.27 nM; in the assay with HLE, 5.75 nM; with KYSE-180, 13.2 nM; in the assay on COR-L23, 6.85 nM; in the assay with C32 it was 13.4 nM; with CAKI-1, 5.35 nM. The IC50 is greater than 100 nM in the assay with HCC1395; 7.31 nM in the assay on GMS-10; 27.2 nM in the assay on NCI-H1793; 69.7 nM with KYSE-140; 19 nM with U-118-MG; 3.14 nM in the assay with NUGC-3. The IC50 is 0.182 nM in the assay with HSC-4; greater than 100 nM with T84; 5.31 nM in the assay with BHY; 18.1 nM with HEC-1; 4.58 nM with SKG-IIIa; 0.212 nM in the assay with HT-3. Further, the IC50 in the assay on HSC-2 turned out to be 11.7 nM; in the assay with CAL-27, 2.02 nM; with MEL-HO it was 7.63 nM; with MDA-MB-361, 34.4 nM; with YKG-1, 5.45 nM; in the assay on HOP-92, 8.79 nM. The IC50 with MFE-280 amounted to 21.6 nM; with KOSC-2, 4.39 nM; in the assay on HuCCT-1, 73.2 nM; with NCI-N87, 8.74 nM; in the assay with A-375, 3.69 nM; with MEL-JUSO, 35.6 nM. In addition, the concentration for half-maximal inhibition (IC50) in the assay on U2OS stood at 13.5 nM; in the assay with GCT, 5.02 nM; in the assay on D-392MG, 17.7 nM; in the assay with SK-MEL-28 it was 17.1 nM; with LoVo it was 14.9 nM; in the assay on SK-MES-1, 10.8 nM.
In the case of `Cc1nc(Nc2ncc(C(=O)Nc3c(C)cccc3Cl)s2)cc(N2CCN(CCO)CC2)n1` [DASATINIB], the IC50 with SR was greater than 1280 nM; in the assay on ECC4 it was greater than 1280 nM; with NCCIT it was greater than 1280 nM; with NCI-H1417 it was greater than 1280 nM; with BL-41, 291 nM; with KMS-12-PE, greater than 1280 nM. Also, the IC50 in the assay with NCI-H2171 is greater than 1280 nM; with BC-3, greater than 1280 nM; in the assay with SCLC-21H it was greater than 1280 nM; in the assay with CA46 it was greater than 1280 nM; in the assay on PF-382 it was 177 nM; in the assay with CESS it was greater than 1280 nM. In addition, the IC50 in the assay with OPM-2, with EVSA-T, in the assay on TALL-1, in the assay on HCC1599 and with SIG-M5 was greater than 1280 nM in each case.
Take `Cc1[nH]c(/C=C2\C(=O)Nc3ccc(S(=O)(=O)Cc4c(Cl)cccc4Cl)cc32)c(C)c1C(=O)N1CCC[C@@H]1CN1CCCC1` [PHA-665752]: the IC50 with SR, with ECC4, in the assay with NCCIT, with NCI-H1417, in the assay on BL-41 and with KMS-12-PE was greater than 2000 nM throughout. Also, the IC50 in the assay on NCI-H2171, in the assay on BC-3, in the assay on SCLC-21H, in the assay with CA46, in the assay with PF-382 and with CESS was greater than 2000 nM each time. The IC50 in the assay with OPM-2, in the assay with EVSA-T, in the assay on TALL-1, in the assay with HCC1599 and in the assay on SIG-M5 was greater than 2000 nM throughout.
